Results reported in a compilation of properties of binary mixtures (doi:10.1039/c8ra04127j).

Assay: xn = mol fraction of the nth substance listed
Conditions: 100 kPa

C[N+](C)(C)CCC[N+]1(C)CCCCC1.N#C[N-]C#N.N#C[N-]C#N + CC#N
viscosity [mPa·s]
Conditions | 288.15 K | 293.15 K | 298.15 K | 303.15 K | 308.15 K | 313.15 K | 318.15 K | 323.15 K | 328.15 K | 333.15 K
x1 = 0.0999 | 3.99 | – | 3.42 | 3.18 | – | 2.81 | – | 2.54 | 2.43 | 2.32
x1 = 0.2001 | 17.4 | 15.1 | 13.2 | 11.6 | 10.3 | – | – | 7.49 | – | 6.16
x1 = 0.3001 | 56.9 | 45.9 | – | 31.4 | – | 22.7 | 19.6 | – | 15.4 | 13.7
x1 = 0.3998 | 146 | 112 | 87.3 | – | – | 46.6 | 39.3 | 33.3 | 28.6 | 24.8
x1 = 0.5002 | 334 | 243 | – | 139 | – | 87 | – | 58.2 | – | –
x1 = 0.6 | 679 | 466 | 322 | 246 | 185 | 145 | 114 | – | – | 62.3
x1 = 0.7001 | 1177 | 729 | 508 | 370 | 274 | 210 | – | – | 105 | 85.5
x1 = 0.7996 | – | 1390 | 900 | 623 | 449 | 329 | 246 | 193 | 152 | 122
x1 = 0.8998 | 3992 | 2477 | 1610 | 1085 | 760 | – | 400 | 303 | 233 | –
x1 = 1 | 7553 | – | – | 1837 | 1224 | 856 | – | 460 | 350 | 270

C[N+](C)(C)CCC[n+]1ccccc1.N#C[N-]C#N.N#C[N-]C#N + CC#N
viscosity [mPa·s]
Conditions | x1 = 0.0999 | x1 = 0.1999 | x1 = 0.2998 | x1 = 0.3997 | x1 = 0.4999 | x1 = 0.6002 | x1 = 0.7001 | x1 = 0.7998 | x1 = 0.8997 | x1 = 1
283.15 K | 4.14 | 14.2 | 52.8 | 131 | 245 | 474 | – | 1385 | 2375 | 7557
288.15 K | 3.75 | 12.3 | 42.2 | 98 | 175 | 321 | 554 | 848 | – | –
293.15 K | 3.45 | – | 34.5 | – | 129 | 226 | 371 | 562 | 850 | –
298.15 K | 3.21 | 9.55 | 28.7 | 59.8 | 98 | 166 | 264 | 382 | – | 1306
303.15 K | – | 8.55 | – | 48.3 | 76.3 | 125 | 192 | – | 392 | 831
308.15 K | 2.83 | – | 21 | 39.6 | 61.3 | 96.7 | 146 | 200 | 286 | 558
313.15 K | 2.67 | 7.03 | 18.2 | 33.3 | 50 | 76.6 | 109 | 145 | 213 | 386
318.15 K | 2.54 | 6.43 | – | 28.2 | 43.5 | 63.9 | 89.7 | 118 | 161 | 281
323.15 K | – | 5.91 | 14.1 | 24.2 | 36.7 | 51.7 | 70.9 | 91.6 | 123 | –
328.15 K | 2.32 | 5.47 | 12.5 | 21 | 30.6 | 43.3 | 57.6 | 73.2 | 95.6 | 162
333.15 K | 2.23 | – | 11.2 | 18.4 | 27.6 | – | 48.5 | 60.3 | 75.3 | 127

CC#N + C[N+](C)(C)CCC[n+]1ccccc1.N#C[N-]C#N.N#C[N-]C#N
x2 = 0
Conditions | viscosity [mPa·s]
283.15 K | 0.401
288.15 K | 0.382
293.15 K | 0.364
298.15 K | 0.348
303.15 K | 0.333
308.15 K | 0.32
313.15 K | 0.307
318.15 K | 0.296
323.15 K | 0.285

CC#N + C[N+](C)(C)CCC[N+]1(C)CCCCC1.N#C[N-]C#N.N#C[N-]C#N
x2 = 0
Conditions | viscosity [mPa·s]
293.15 K | 0.364
308.15 K | 0.32
313.15 K | 0.307
318.15 K | 0.296
323.15 K | 0.285
328.15 K | 0.275
